Key:
NS3-NS4 [1] = target: T1, NS3-NS4 (Hepatitis C virus genotype 1a, UniProt P27958); experiment: cell-based; details: EC50, NS3-NS4 activity
NS3-NS4 [2] = target: T1, NS3-NS4; experiment: NS3-NS4 activity, IC50 (Example 37, Table 8); format: biochemical

T1 sequence (P27958 1027-1657): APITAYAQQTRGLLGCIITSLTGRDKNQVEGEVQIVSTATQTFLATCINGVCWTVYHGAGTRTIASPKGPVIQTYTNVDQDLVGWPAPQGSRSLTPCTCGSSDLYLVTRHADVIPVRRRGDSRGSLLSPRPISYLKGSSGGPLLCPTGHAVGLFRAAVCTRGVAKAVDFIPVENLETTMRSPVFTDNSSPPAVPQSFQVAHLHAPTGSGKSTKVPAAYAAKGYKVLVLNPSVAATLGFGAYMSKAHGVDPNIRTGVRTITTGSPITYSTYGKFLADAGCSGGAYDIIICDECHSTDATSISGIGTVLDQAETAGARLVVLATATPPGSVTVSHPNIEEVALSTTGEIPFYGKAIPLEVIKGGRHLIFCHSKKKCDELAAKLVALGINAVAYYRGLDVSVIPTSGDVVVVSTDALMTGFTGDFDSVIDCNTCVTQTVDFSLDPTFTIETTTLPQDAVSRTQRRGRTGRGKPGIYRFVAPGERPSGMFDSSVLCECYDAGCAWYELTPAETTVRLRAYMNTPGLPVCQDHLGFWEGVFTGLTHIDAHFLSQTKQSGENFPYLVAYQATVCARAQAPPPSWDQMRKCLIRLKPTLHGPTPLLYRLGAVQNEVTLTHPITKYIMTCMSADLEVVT
T1 sequence (P27958 1658-1711): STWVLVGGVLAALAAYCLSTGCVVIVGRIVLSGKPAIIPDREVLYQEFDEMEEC

| Structure (SMILES) | EC50 (NS3-NS4 [1]) | IC50 (NS3-NS4 [2]) |
| --- | --- | --- |
| CC(C)(C)OC(=O)N[C@H]1CCCCC/C=C\[C@@H]2C[C@@]2(C(=O)NS(=O)(=O)c2cc(Cl)ccc2Cl)NC(=O)[C@@H]2C[C@@H](OC(=O)N3Cc4cccc(F)c4C3)CN2C1=O [Compound 316] | < 100 nM | < 100 nM |
| Cc1cccc(S(=O)(=O)NC(=O)[C@@]23C[C@H]2/C=C\CCCCC[C@H](NC(=O)OC(C)(C)C)C(=O)N2C[C@H](OC(=O)N4Cc5cccc(F)c5C4)C[C@H]2C(=O)N3)c1 [Compound 317] | < 100 nM | < 100 nM |
| Cc1ccc(S(=O)(=O)NC(=O)[C@@]23C[C@H]2/C=C\CCCCC[C@H](NC(=O)OC(C)(C)C)C(=O)N2C[C@H](OC(=O)N4Cc5cccc(F)c5C4)C[C@H]2C(=O)N3)cc1 [Compound 318] | < 100 nM | < 100 nM |
| CC(C)(C)OC(=O)N[C@H]1CCCCC/C=C\[C@@H]2C[C@@]2(C(=O)NS(=O)(=O)c2cc(Cl)sc2Cl)NC(=O)[C@@H]2C[C@@H](OC(=O)N3Cc4ccccc4C3)CN2C1=O [Compound 319] | < 100 nM | < 100 nM |
| CCc1ccc(S(=O)(=O)NC(=O)[C@@]23C[C@H]2/C=C\CCCCC[C@H](NC(=O)OC(C)(C)C)C(=O)N2C[C@H](OC(=O)N4Cc5cccc(F)c5C4)C[C@H]2C(=O)N3)cc1 [Compound 320] | < 100 nM | < 100 nM |
| Cc1ccccc1S(=O)(=O)NC(=O)[C@@]12C[C@H]1/C=C\CCOCC[C@H](NC(=O)OC(C)(C)C)C(=O)N1C[C@H](OC(=O)N3Cc4cccc(Cl)c4C3)C[C@H]1C(=O)N2 [Compound 321, (2R,6S,13aS,14aR,16aSZ)-6-(tert-butoxycarbonylamino)-5,16-dioxo-14a-(o-tolylsulfonylcarbamoyl)-2,3,5,6,7,8,10,11,13a,14,14a,15,16,16a-tetradecahydro-1H-cyclopropa[j]pyrrolo[1,2-f][1,6,9]oxadiazacyclopentadecin-2-yl 4-chloroisoindoline-2-carboxylate] | < 100 nM | < 100 nM |
| CC(C)(C)OC(=O)N[C@H]1CCOCC/C=C\[C@@H]2C[C@@]2(C(=O)NS(=O)(=O)c2cc(Cl)sc2Cl)NC(=O)[C@@H]2C[C@@H](OC(=O)N3Cc4cccc(Cl)c4C3)CN2C1=O [Compound 322, (2R,6S,13aS,14aR,16aS,Z)-6-(tert-butoxycarbonylamino)-14a-(2,5-dichlorothiophen-3-ylsulfonylcarbamoyl)-5,16-dioxo-2,3,5,6,7,8,10,11,13a,14,14a,15,16,16a-tetradecahydro-1H-cyclopropa[j]pyrrolo[1,2-f][1,6,9]oxadiazacyclopentadecin-2-yl 4-chloroisoindoline-2-carboxylate] | < 100 nM | < 100 nM |
| CC(C)(C)OC(=O)N[C@H]1CCOCC/C=C\[C@@H]2C[C@@]2(C(=O)NS(=O)(=O)c2ccc(Cl)cc2)NC(=O)[C@@H]2C[C@@H](OC(=O)N3Cc4cccc(Cl)c4C3)CN2C1=O [Compound 324, (2R,6S,13aS,14aR,16aSZ)-6-(tert-butoxycarbonylamino)-14a-(4-chlorophenylsulfonylcarbamoyl)-5,16-dioxo-2,3,5,6,7,8,10,11,13a,14,14a,15,16,16a-tetradecahydro-1H-cyclopropa[j]pyrrolo[1,2-f][1,6,9]oxadiazacyclopentadecin-2-yl 4-chloroisoindoline-2-carboxylate] | < 100 nM | < 100 nM |
| CCC(C)(C)OC(=O)N[C@H]1CCOCC/C=C\[C@@H]2C[C@@]2(C(=O)NS(=O)(=O)c2ccc(Cl)cc2)NC(=O)[C@@H]2C[C@@H](OC(=O)N3Cc4cccc(Cl)c4C3)CN2C1=O [Compound 325, (2R,6S,13aS,14aR,16aS,Z)-14a-(4-chlorophenylsulfonylcarbamoyl)-5,16-dioxo-6-(tert-pentyloxycarbonylamino)-2,3,5,6,7,8,10,11,13a,14,14a,15,16,16a-tetradecahydro-1H-cyclopropa[j]pyrrolo[1,2-f][1,6,9]oxadiazacyclopentadecin-2-yl 4-chloroisoindoline-2-carboxylate] | < 100 nM | < 100 nM |
| CC(C)(C)OC(=O)N[C@H]1CCCCC/C=C\[C@@H]2C[C@@]2(C(=O)NS(=O)(=O)c2ccccc2Cl)NC(=O)[C@@H]2C[C@@H](OC(=O)N3Cc4cccc(F)c4C3)CN2C1=O [Compound 332] | < 100 nM | < 100 nM |
| CC(C)(C)OC(=O)N[C@H]1CCCCC/C=C\[C@@H]2C[C@@]2(C(=O)NS(=O)(=O)c2ccc(Cl)cc2)NC(=O)[C@@H]2C[C@@H](OC(=O)N3Cc4cccc(F)c4C3)CN2C1=O [Compound 333] | < 100 nM | < 100 nM |
| O=C(N[C@H]1CCCCC/C=C\[C@@H]2C[C@@]2(C(=O)NS(=O)(=O)c2ccc(Cl)cc2)NC(=O)[C@@H]2C[C@@H](OC(=O)N3Cc4cccc(F)c4C3)CN2C1=O)OC1CCOC1 (some centres unmarked) [Compound 334] | < 100 nM | < 100 nM |
| O=C(N[C@H]1CCCCC/C=C\[C@@H]2C[C@@]2(C(=O)NS(=O)(=O)c2ccc(Cl)cc2)NC(=O)[C@@H]2C[C@@H](OC(=O)N3Cc4cccc(Cl)c4C3)CN2C1=O)OC1CCOCC1 [Compound 335] | 100 to 1000 nM | < 100 nM |
| CCC(C)(C)OC(=O)N[C@H]1CCCCC/C=C\[C@@H]2C[C@@]2(C(=O)NS(=O)(=O)c2ccc(Cl)cc2)NC(=O)[C@@H]2C[C@@H](OC(=O)N3Cc4cccc(F)c4C3)CN2C1=O [Compound 336] | < 100 nM | < 100 nM |
| CCC(C)(C)OC(=O)N[C@H]1CCCCC/C=C\[C@@H]2C[C@@]2(C(=O)NS(=O)(=O)c2ccccc2C)NC(=O)[C@@H]2C[C@@H](OC(=O)N3Cc4cccc(F)c4C3)CN2C1=O [Compound 337] | < 100 nM | < 100 nM |
| Cc1ccccc1S(=O)(=O)NC(=O)[C@@]12C[C@H]1/C=C\CCCCC[C@H](NC(=O)OC1CCC1)C(=O)N1C[C@H](OC(=O)N3Cc4cccc(F)c4C3)C[C@H]1C(=O)N2 [Compound 338] | < 100 nM | < 100 nM |
| O=C(N[C@H]1CCCCC/C=C\[C@@H]2C[C@@]2(C(=O)NS(=O)(=O)c2ccc(Cl)cc2)NC(=O)[C@@H]2C[C@@H](OC(=O)N3Cc4cccc(F)c4C3)CN2C1=O)OC1CCC1 [Compound 339] | < 100 nM | < 100 nM |
| CC(C)(C)COC(=O)N[C@H]1CCCCC/C=C\[C@@H]2C[C@@]2(C(=O)NS(=O)(=O)c2ccc(Cl)cc2)NC(=O)[C@@H]2C[C@@H](OC(=O)N3Cc4cccc(F)c4C3)CN2C1=O [Compound 340] | < 100 nM | < 100 nM |
| CC(C)COC(=O)N[C@H]1CCCCC/C=C\[C@@H]2C[C@@]2(C(=O)NS(=O)(=O)c2ccc(Cl)cc2)NC(=O)[C@@H]2C[C@@H](OC(=O)N3Cc4cccc(F)c4C3)CN2C1=O [Compound 341] | < 100 nM | < 100 nM |
| CC(C)COC(=O)N[C@H]1CCCCC/C=C\[C@@H]2C[C@@]2(C(=O)NS(=O)(=O)c2cc(Cl)sc2Cl)NC(=O)[C@@H]2C[C@@H](OC(=O)N3Cc4cccc(F)c4C3)CN2C1=O [Compound 342] | < 100 nM | < 100 nM |
| CC(C)(C)COC(=O)N[C@H]1CCCCC/C=C\[C@@H]2C[C@@]2(C(=O)NS(=O)(=O)c2cc(Cl)sc2Cl)NC(=O)[C@@H]2C[C@@H](OC(=O)N3Cc4cccc(F)c4C3)CN2C1=O [Compound 343] | < 100 nM | < 100 nM |
| CCC(C)(C)OC(=O)N[C@H]1CCCCC/C=C\[C@@H]2C[C@@]2(C(=O)NS(=O)(=O)c2cc(Cl)sc2Cl)NC(=O)[C@@H]2C[C@@H](OC(=O)N3Cc4cccc(F)c4C3)CN2C1=O [Compound 344] | < 100 nM | < 100 nM |
